Where two headings read alike, the source gives them in different places.

In data set [1] the test system is Escherichia coli (MC4100). Briefly: MIC determination by two-fold serial dilution in 96-well microtiter plates. The data set is classed as cell-based. Conditions: read-out: MIC, Gram negative E. coli. The method, then:
(§1) For the compounds above, respective minimum inhibitory concentration (MIC) values against the Gram-positive S. aureus, E. faecalis, Gram-negative E. coli and P. aeruginosa were determined, respectively, by standard methods. […] Cell viability was verified by serial dilution and plating on MH agar. Both aqueous and fresh media positive controls were performed for each trial. Overnight bacterial cultures of Staphylococcus aureus (SH1000), Enterococcus faecalis (OG1RF), Escherichia coli (MC4100), and Pseudomonas aeruginosa (PAO1-WT) were grown in Mueller-Hinton broth at 37° C., with all but E. faecalis under shaking Overnight cultures were diluted to approximately 10^6 cfu/mL as determined by OD measurement at 640 nm and plating on MH agar.
(§2) Each compound was serially diluted two-fold with water from 1 mM down to 1 μM yielding twelve dilutions per compound. In triplicate, 100 µL of each dilution were pipetted into the appropriate well of a 96-well microtiter plate, and then […] of overnight bacterial culture diluted to ca. 10^6 cfu/mL were inoculated into each well. Microtiter plates were incubated at 37° C. for 72 hours. Up to seven compounds were tested against one bacterial species at twelve decreasing concentrations per 96-well plate.

In data set [2] the test system is Pseudomonas aeruginosa (PAO1-WT). Described as above. The data set is classed as cell-based. The note with it: Table 1, 37° C., 72 hours, read-out: MIC, Gram negative P. aeruginosa. The method, then: as §1, §2
Data set [3] deals with Enterococcus faecalis (OG1RF). The description is as above. It is filed as cell-based. Conditions: Table 1, 37° C., 72 hours, read-out: MIC, Gram positive E. faecalis. How it is done:
as §1, §2

For data set [4], the system named is Staphylococcus aureus (SH1000). The description is as above. Conditions: Table 1, 37° C., 72 hours, read-out: MIC, Gram positive S. aureus. It is filed as cell-based. How it is done: as §1, §2
For another data set, the system named is S. aureus. Conditions: pH 7.4; cited from earlier work.
The test system of a further data set is B. subtilis. The note with it: pH 7.4; cited from earlier work.
Data set [5] deals with pre-established Staph aureus biofilms. Kind of data set: visual disruption of pre-established biofilms. The note with it: disperses biofilms. The data set is classed as cell-based. How it is done: Compound (12,2,0,2,12) causes a visual disruption of pre-established Staph aureus biofilms at 25 μM (micromolar). Thus it at least disperses biofilms at 25 μM.
The test system of data set [6] is S. aureus, E. faecalis, E. coli and P. aeruginosa. Kind of data set: MIC determination, statements across the bacteria tested. It is filed as cell-based. How it is done: as §1, §2
The nature of a further data set: water solubility. It is filed as physicochemical.
Setting [7] is: S. aureus, E. faecalis, E. coli, P. aeruginosa, read-out: MIC values against all four bacterial species tested.

As for `CCCCCCCCCCCCCCCCCCCC[N+](C)(C)CC[N+](C)(C)CCCCCCCCCCCCCCCC` [(20, 2, 16)], the MIC in data set [1] (Escherichia coli, 72 h) was found to be 63 µM; in data set [2] (Pseudomonas aeruginosa, PAO1), 63 µM; in [3] (Enterococcus faecalis), 32 µM; in data set [4] (Staphylococcus aureus), 16 µM.
For the compound `N=C(N=C(N)N)Nc1cccc(NC(=N)N=C(N)N)c1` [Compound 11a], the “MBIC S. aureus” value in the data set with S. aureus is 300 µM. Also, the “MBIC B. subtilis” value in the data set on B. subtilis is 30 µM.
For `N=C(N=C(N)N)Nc1cccc(NC(=N)N=C(N)N)c1` [Compound 11b], in the data set on S. aureus, the “MBIC S. aureus” value was 750 ± 250 µM. For the same compound, in the data set with B. subtilis, the “MBIC B. subtilis” value is 7 ± 3 µM.
`CCCCCCCCCCCC[N+](C)(C)CCN(C)CC[N+](C)(C)CCCCCCCCCCCC.[Br-].[Br-]` [Compound 12, 2, 0, 2, 12]: the “concentration causing visual disruption of pre-established biofilms” value in [5] turned out to be 25 µM. The minimum inhibitory concentration (MIC) in [6] (setting [7]) is at most 4 µM.
Consider `CCCCCCCCCCCC[N+](C)(C)CC[N+](C)(C)CCCCCCCCCC` [Compound (12, 2, 10)], for which, in data set [6] (setting [7]), the MIC was at most 2 µM.
With `CCCCCCCCCCCCC[N+](C)(C)CC[N+](C)(C)CCCCCCCCCC` [Compound (13, 2, 10)], the MIC amounted to 2 µM in data set [1] (Escherichia coli, 72 h); 2 µM in [2] (Pseudomonas aeruginosa, PAO1); 1 µM in [3] (Enterococcus faecalis); 1 µM in data set [4] (Staphylococcus aureus).
As to `CCCCCCCCCCCCCCCCCC[N+](C)(C)CCN(C)C.[Br-]` [Compound (18, 2, 0)], the minimum inhibitory concentration (MIC) in data set [1] (Table 1, 37° C., 72 hours) was 63 µM; in data set [2] (Pseudomonas aeruginosa, PAO1) it was 63 µM; in data set [6] (S. aureus and E. faecalis, read-out: MIC values versus Gram positive bacteria), 2 to 4 µM.
Consider `CCCCCCCCCCCCCCCCCC[N+](C)(C)CC[N+](C)(C)CCCCCCCC` [Compound (18, 2, 8)], for which the water solubility entry in the data set “water solubility” is “fully water soluble”.
Same read-out and setting: next, `CCCCCCCCCCCCCCCCCCCC[N+](C)(C)CC[N+](C)(C)CCCCCCCC` [Compound (20, 2, 8)]: “fully water soluble”.
For “N-alkyl-N-benzyl-N,N-dimethylammonium chloride [benzalkonium chloride, reference compound]”, the MIC in [1] (Table 1, 37° C., 72 hours) is 32 µM; in data set [2] it was 63 µM; in data set [3], 8 µM; in data set [4], 8 µM. For the same compound, the fold less activity in data set [6] (compared with compound (12,2,10)) is 4-32 fold.

The record behind these values is patent publication US20160278375A1, “BISCATIONIC AND TRISCATIONIC AMPHIPHILES AS ANTIMICROBIAL AGENTS” (Temple University of the Commonwealth System of Higher …, priority 2013, published 2016).
